Among the data in article PMC9029529, “Distinct Mechanisms of Cytotoxicity in Novel Nitrogenous Heterocycles: Future Directions for a New Anti-Cancer Agent” (Molecules, 2022) are IC50 values, retold here.

The test system of assay [1] is KAIMRC1 cells. Description: CellTiter-Glo assay, KAIMRC1. Format: cell-based. The note with it: Homo sapiens, 24 h, read-out: IC50 Breast Cancer KAIMRC1. The method, then: (§1) To validate the anti-proliferative activity of the imidazole derivatives, the compounds were tested against several cancer cell lines, which included breast cancer (MDA-MB-231, KAIMRC1, and KAIMRC2), colorectal cancer (HCT8), and acute promyelocytic leukemia cells (HL60). KAIMRC1 was isolated from a person with stage II-B breast cancer and is ER+/PR+ and HER2-. In comparison, KAIMRC2 was isolated from a person with metastasized breast cancer and is a triple-negative (ER-/PR-, and HER2-) tumor cell line.
(§2) The CellTiter-Glo assay (Promega™, Madison, WI, USA) was used to evaluate imidazole and oxazolone derivatives cytotoxicity against various cancer cell lines; MCF-10A, HL60, MDA-MB-231, and HCT8, purchased from ATCC, USA, except KAIMRC1 and KAIMRC2, which were isolated, established, and characterized in the core laboratory facility KAIMRC, Riyadh, Saudi Arabia. The cells were seeded in white 96-well plates at a density of 5 × 10^3 cells/well in a 100 μL of growth medium with various concentrations of each compound ranging from 0 to 250 µM. Cells were incubated at 37 °C for 24 h. Plates were equilibrated at RT for 30 min. A quantity of 100 µL of CellTiter-Glo reagent was added to each well and mixed for 2 min on an orbital shaker. Plates were incubated for 10 min at RT before measuring the luminescence using an Envision plate reader (Perkin Elmer). Half-maximal inhibitory concentration IC50 values (μM) were calculated for each imidazole derivative from the dose–response curve. The cytotoxic effect at a concentration <10 µM was considered strongly active and from 11 to 100 µM was considered moderately active, whereas above 100 µM was deemed non-active. Mitoxantrone was utilized as a positive control. Experiments were performed in triplicates.

Assay [2] relates to HCT8 cells. The experiment in a line: MTT assay, HCT8. Format: cell-based. The note with it: Homo sapiens, HCT-8, 24 h, 0 to 250 μM, read-out: IC50 Colorectal Cancer (HCT8). As for the experimental part: (§3) To establish the cytotoxic effect of the nitrogenous derivatives, cells were treated with various concentrations of the drugs ranging from 0 to 250 μM. Following a 24 h incubation period, cell viability was assessed using the MTT assay. Mitoxantrone served as a positive control to evaluate growth inhibition. Since heterogeneity is a hallmark of cancer, the study included cell lines with diverse genomic and proteomic profiles. […] In this regard, further optimization would be required to increase the selective therapeutic potential of compound 9. To determine whether the anti-proliferative effect of the nitrogen derivatives could be translated to other malignancies, we tested the cytotoxic effect on the HCT8 (colorectal cancer) cell line. HCT8 is an adenocarcinoma driven by the Kirsten Rat Sarcoma (KRAS) mutation, unlike MCF-10A [28].
(§4) The MTT assay was utilized to examine the imidazole derivatives’ anti-proliferative activity against MCF-10A, MDA-MB-231, and HCT8 cell lines, purchased from ATCC, USA [47]. Firstly, 5 × 10^3 cells/well were seeded in a 96-well plate in 100 μL of growth medium and were subsequently cultured overnight with various concentrations of each compound ranging from 0 to 250 µM [48]. The media was aspirated, and 50 µL of serum-free media and 50 µL of MTT solution were added to each well. Next, cells were incubated at 37 °C for 3 h, then 150 µL of MTT solvent was added into each well. After that, plates were wrapped in foil and agitated for 15 min on an orbital shaker. Finally, the absorbance was measured within 1 h at OD590 nm. Half-maximal inhibitory concentration IC50 values (μM) were calculated for each compound from the dose–response curve. Experiments were performed in triplicates.

The subject of assay [3] is MDA-MB-231 cells. The experiment in a line: MTT assay, MDA-MB-231. The note with it: Homo sapiens, MDA-MB-231, 24 h, 0 to 250 μM, read-out: IC50 Breast Cancer (MDA-MB-231). Type of assay: cell-based, human. The method, then:
as §3, §4

For assay [4], the system named is KAIMRC2 cells. Description: CellTiter-Glo assay, KAIMRC2. Type of assay: cell-based. The note with it: Homo sapiens, 24 h, read-out: IC50 Breast Cancer KAIMRC2. As for the experimental part:
as §1, §2

For assay [5], the system named is HCT8 cells. The experiment in a line: CellTiter-Glo assay, HCT8. Format: cell-based. The note with it: Homo sapiens, HCT-8, 24 h, read-out: IC50 Colorectal Cancer HCT8. The method, then: as §1, §2
Assay [6] has as its system MCF-10A cells. The experiment in a line: MTT assay, MCF-10A. Format: cell-based, human. The note with it: Homo sapiens, MCF-10A, 24 h, 0 to 250 μM, read-out: IC50 Non-Malignant Breast Epithelial Cells (MCF-10A). As for the experimental part: as §3, §4
Assay [7] concerns MDA-MB-231 cells. The experiment in a line: CellTiter-Glo assay, MDA-MB-231. Format: cell-based. The note with it: Homo sapiens, 24 h, read-out: IC50 Breast Cancer MDA-MB-231. The method, then: as §1, §2
Assay [8] relates to HL60 cells. The experiment in a line: CellTiter-Glo assay, HL60. Format: cell-based, human. The note with it: Homo sapiens, HL-60, 24 h, read-out: IC50 Leukemia HL60. As for the experimental part: as §1, §2

For `O=C1OC(c2ccccc2)=N/C1=C\c1ccccc1` [Compound 1], the IC50 in assay [1] came to 62.2 µM; in assay [2], 51.1 µM; in assay [3], 22.9 µM; in assay [4] it was 59.2 µM.
With `O=C1OC(c2ccccc2)=N/C1=C\C=C\c1ccccc1` [Compound 2], the IC50 worked out at 121 µM in assay [5]; 104 µM in assay [1]; 72.2 µM in assay [2]; 43.6 µM in assay [3]; 121 µM in assay [4]; 65.5 µM in assay [6].
Turning to `COc1cccc(/C=C2\N=C(c3ccccc3)OC2=O)c1` [Compound 3], the IC50 is 58.6 µM in assay [1], 40 µM in assay [3] and 64.3 µM in assay [4].
Turning to `CN(C)c1ccc(/C=C2\N=C(c3ccccc3)OC2=O)cc1` [Compound 4], the IC50 in assay [3] worked out at 69.4 µM.
On to `O=C1OC(c2ccccc2)=N/C1=C\c1ccccc1O` [Compound 5], for which the IC50 in assay [7] came to 52.1 µM; in assay [5], 63.7 µM; in assay [8], 17.9 µM; in assay [1] it was 28.6 µM; in assay [2], 39.1 µM; in assay [3], 39.6 µM. Moreover, the figures for the IC50 in assay [4] and in assay [6] were 30.3 µM and 34.2 µM, respectively.
For the compound `COc1cc(/C=C2\N=C(c3ccccc3)OC2=O)ccc1O` [Compound 6], the IC50 in assay [2] was determined as 70.8 µM; in assay [3], 50.6 µM; in assay [6] it was 50.4 µM.
In the case of `O=C1OC(c2ccccc2)=N/C1=C\c1ccco1` [Compound 7], the IC50 stood at 60.9 µM in assay [7]; 91.2 µM in assay [5]; 67.4 µM in assay [8]; 39.2 µM in assay [1]; 73.5 µM in assay [2]; 23 µM in assay [3]. Also, the IC50 in assay [4] is 87.9 µM; in assay [6] it was 63 µM.
For `O=C1/C(=C/c2ccccc2O)N=C(c2ccccc2)N1Nc1ccc([N+](=O)[O-])cc1[N+](=O)[O-]` [Compound 10], in assay [3], the IC50 worked out at 56 µM.
For `COc1cc(/C=C2\N=C(c3ccccc3)N(Nc3ccc([N+](=O)[O-])cc3[N+](=O)[O-])C2=O)ccc1O` [Compound 11], the IC50 is 45.4 µM in assay [7]; 40.4 µM in assay [5]; 20.9 µM in assay [8]; 24.8 µM in assay [1]; 57.1 µM in assay [3]; 32.2 µM in assay [4].
Turning to `O=C1/C(=C/c2ccco2)N=C(c2ccccc2)N1Nc1ccc([N+](=O)[O-])cc1[N+](=O)[O-]` [Compound 12], in assay [3], the IC50 is 50.8 µM.
Still for that read-out and setting: next, `COc1ccc(/C=C2\N=C(c3ccccc3)N(N)C2=O)cc1` [Compound 13]: 78.5 µM.
Regarding `NN1C(=O)/C(=C/c2ccccc2)N=C1c1ccccc1` [Compound 14], the IC50 was 243 µM in assay [7], 243 µM in assay [1], 139 µM in assay [3] and 161 µM in assay [4].
Regarding `O=C1c2c(O)ccc(O)c2C(=O)c2c(NCCNCCO)ccc(NCCNCCO)c21` [Mitoxantrone, reference compound], the IC50 in assay [7] is 1.94 µM; in assay [5], 5.62 µM; in assay [8], 0.125 µM; in assay [1], 1.71 µM; in assay [2], 0.711 µM; in assay [3], 3.17 µM. In addition, the IC50 in assay [4] worked out at 0.801 µM; in assay [6] it was 2.9 µM.
